Data from patent US20140051665A1, “PROSTATE CANCER THERAPY WITH HSP90 INHIBITORY COMPOUNDS” (SYNTA PHARMACEUTICALS CORP., priority 2011, published 2014).
Where two headings read alike, the source gives them in different places.

Key:
[1] = system: DU-145 prostate carcinoma cells; test: alamarBlue cell viability assay, single agents and docetaxel combination; details: DU-145 cells, 72 hr
PC3 cells [2] = test: Combination of AZD-7762 with ganetespib, killing of PC3 cells; assay type: cell-based, human
DU145 cells [3] = test: Annexin V apoptosis assay by flow cytometry; assay type: cell-based, human; details: DU145, 24 h, escalating doses
Procedure: (§1) For cell cycle analysis, PC3 and DU145 cells were seeded overnight at 0.3×10^6 cells/5 mL in a 6-well plate and then exposed to increasing concentrations of ganetespib (0-500 nM) for 24 h. Cells were harvested and stained with propidium iodide using the BD Cycle TEST PLUS Reagent Kit (BD Biosciences, San Jose, Calif., USA) according to the manufacturer's instructions. Twenty thousand cells were analyzed for their DNA content using a FACS Caliber cytometer (BD Biosciences, Billerica, Mass., USA). For the apoptosis assay in the DU145 cell line, cells were treated with ganetespib (10, 100 or 500 nM), 17-AAG (500 or 1000 nM) or control (DMSO) for 24 h. Following treatment cells were harvested and stained using a fluorescein-conjugated anti-Annexin V antibody (BD Biosciences) and apoptosis assessed by flow cytometry.

[4] = system: DU145 cells (EGFR, STAT3, IGF-IR); test: Western blot of Hsp90 client proteins, DU145; assay type: cell-based, human; details: for exposure required for significant reductions in p-EGFR expression: DU145
Excerpt: (§2) Prostate cancer cell lines were lysed in RIPA buffer (Cell Signaling Technology, Beverly, Mass. USA) and HeLa lysed by four rounds of freeze/thawing using 1× Reporter Lysis Buffer (Promega, Madison, Wis., USA) containing 0.4 M NaCl. Lysates were clarified by centrifugation and equal amounts of protein resolved by SDSPAGE before transfer to nitrocellulose membranes. Membranes were blocked with 5% skim milk in TBS with 0.5% Tween and immunoblotted with indicated antibodies. Antigen-antibody complexes were visualized using an Odyssey system (LI-COR, Lincoln, Nebr., USA).

LNCaP cells = test: CellTiter-Glo cell viability assay, LNCaP
Procedure: (§3) The LNCaP, VCaP, 22Rv1, DU145 and PC3 human prostate cancer cell lines and HeLa cells were all purchased from the American Type Culture Collection (Manassas, Va., USA). Cells were maintained and cultured according to standard techniques at 37° C. in 5% (v/v) CO2 using culture medium recommended by the supplier. […] The Hsp90 inhibitors ganetespib and 17-AAG were synthesized at Synta Pharmaceuticals Corp. methyltrienolone (R1881) was purchased from Perkin-Elmer (Boston, Mass., USA).
(§4) Cellular viability was assessed using the CellTiter-Glo Luminescent Cell Viability Assay (Promega, Madison, Wis., USA) according to the manufacturer's protocol. Twenty-four hours after plating at 5×10^3 cells/well in triplicate in 96-well plates, cells were dosed with graded concentrations of ganetespib or 17-AAG for 72 h. CellTiter-Glo was added (50% v/v) to the cells, and the plates incubated for 10 min prior to luminescent detection in a SpectraMax Plus 384 microplate reader (Molecular Devices, Sunnyvale, Calif., USA). Data were normalized to percent of control and IC50 values used to determine the sensitivity of each line.

22Rv1 cells = test: CellTiter-Glo cell viability assay, 22Rv1; details: read-out: cytotoxicity IC50, 22Rv1, 72 h
Procedure: as §3, §4

DU145 cells [5] = test: CellTiter-Glo cell viability assay, DU145; details: read-out: cytotoxicity IC50
Procedure: as §3, §4

VCaP cells = test: CellTiter-Glo cell viability assay, VCaP
Procedure: as §3, §4

PC3 cells [6] = test: CellTiter-Glo cell viability assay, PC3; details: read-out: cytotoxicity IC50
constitutive V7 activity = test: GRE-luciferase reporter assay in HeLa, V7 variant; assay type: cell-based
Excerpt: HeLa cells were transiently transfected using a poly-L-lysine coupled adenoviral-mediated DNA transfer technique as previously described. See, e.g., Nazareth et al (1996), Activation of the human androgen receptor through a protein kinase A signaling pathway. J Biol Chem 271 19900-19907. The plasmid constructs used were pCR3.1-AR (encoding for full length AR) and pCR3.1-V7 (encoding for the V7 truncated AR isoform and which was a gift from Manjula Nakka and William Krause, Baylor College of Medicine). For the expression study, HeLa cells were transfected with 3 ng of pCR3.1-AR or 0.5 ng of pCR3.1-V7 for 24 h. Cells were treated with R1881 (10 nM), GA (1 μM), and/or STA9090 (250 nM) or vehicle (ethanol and DMSO) for 24 hours prior to lysis and immunoblotting. To determine the effect of Hsp90 inhibitors on AR and variant activity, HeLa cells were transiently transfected with 250 ng of GRE-luciferase reporter, 30 ng of pCR3.1 β-galactosidase, 3 ng of pCR3.1-AR, or 0.03 ng of pCR3.1-V7 and treated as above. Luciferase and β-galactosidase activities were measured and luciferase levels normalized to β-galactosidase levels as described previously. See, e.g., Agoulnik et al (2003), Repressors of androgen and progesterone receptor action. J Biol Chem 278 31136-31148.

[7] = system: PCa cell lines (LNCaP, 22Rv1, PC-3, DU-145); test: Summary of potency in PCa cell line panel versus 17-AAG; assay type: cell-based, human
Procedure: as §4

[8] = system: 22Rv1 cells (full-length AR, p-AKT/AKT, PARP); test: Western blot, 22Rv1; assay type: cell-based, human; details: 22Rv1, 24 h
Excerpt: as §2

full length AR = test: Expression of transfected full length AR in HeLa, immunoblot; assay type: cell-based; details: 24 h, GA or 250 nM ganetespib, 10 nM R1881
Excerpt: (§5) HeLa cells were transiently transfected using a poly-L-lysine coupled adenoviral-mediated DNA transfer technique as previously described. […] The plasmid constructs used were pCR3.1-AR (encoding for full length AR) and pCR3.1-V7 (encoding for the V7 truncated AR isoform and which was a gift from Manjula Nakka and William Krause, Baylor College of Medicine).

[9] = system: AR-specific transcriptional activity in LNCaP cells; test: Quantitative RT-PCR of AR-directed genes PSA and TMPRSS2; assay type: cell-based, human; details: 250 nM ganetespib or 1 μM geldanamycin, 24 h, 10 nM R1881
Procedure: LNCaP cells were cultured in charcoal-stripped medium for 24 h and then treated with 250 nM ganetespib, 1 μM geldanamycin, or vehicle for 24 h in the absence or presence of 10 nM methyltrienolone (R1881). RNA was prepared from the LNCaP cells post-treatment using TRIzol reagent (Invitrogen, Grand Island, N.Y., USA). Previously reported prostate specific antigen (PSA), transmembrane protease, serine 2 (TMPRSS2), and 18S primer sets were used for target gene expression and were analyzed using SYBR green PCR Master mix in an ABI 7500 Fast sequence detection system. See, e.g., Agoulnik et al (2006), Androgens modulate expression of transcription intermediary factor 2, an androgen receptor coactivator whose expression level correlates with early biochemical recurrence in prostate cancer. Cancer Res 66 10594-10602. PSA and TMPRSS2 mRNA levels were normalized to 18S mRNA values.

DU145 cells [10] = test: Cell cycle analysis by flow cytometry, DU145; assay type: cell-based, human; details: DU145, 0-500 nM, 24 h
Procedure: as §1

PC3 cells (IGF-1R) = test: Western blot of Hsp90 client proteins, PC3; assay type: cell-based, human
Excerpt: as §2

V7 truncated AR isoform = test: Expression of transfected V7 truncated AR in HeLa, immunoblot; assay type: cell-based; details: 24 h, 1 mM GA or 250 nM ganetespib
Excerpt: as §5

PC3 cells [11] = test: Cell cycle analysis by flow cytometry, PC3; assay type: cell-based, human; details: PC3, 0-500 nM, 24 h
Procedure: as §1

PC3 tumor xenografts = test: In vivo prostate xenograft model; details: for % T/C: PC3 xenografts in nude mice, i.v.
Procedure: Eight-week-old female immunodeficient nude mice (Charles River Laboratories, Wilmington, Mass.) were maintained in a pathogen-free environment, and all in vivo procedures were approved by the Synta Pharmaceuticals Corp. Institutional Animal Care and Use Committee. PC3 tumor cells were subcutaneously implanted into nude mice. […] Tumor volumes (V) were calculated by caliper measurements of the width (W), length (L), and thickness (T) of each tumor using the formula: V=0.5236(LWT). Tumor growth inhibition was determined as described previously.

[12] = weekly dosing regimen; cited from earlier work
full-length AR activity = test: GRE-luciferase reporter assay in HeLa, full-length AR; assay type: cell-based
Procedure: HeLa cells were transiently transfected using a poly-L-lysine coupled adenoviral-mediated DNA transfer technique as previously described. […] The plasmid constructs used were pCR3.1-AR (encoding for full length AR) and pCR3.1-V7 (encoding for the V7 truncated AR isoform and which was a gift from Manjula Nakka and William Krause, Baylor College of Medicine). […] To determine the effect of Hsp90 inhibitors on AR and variant activity, HeLa cells were transiently transfected with 250 ng of GRE-luciferase reporter, 30 ng of pCR3.1 β-galactosidase, 3 ng of pCR3.1-AR, or 0.03 ng of pCR3.1-V7 and treated as above. Luciferase and β-galactosidase activities were measured and luciferase levels normalized to β-galactosidase levels as described previously.

[13] = system: LNCaP cells (AR, p-AKT/AKT, CDK1); test: Western blot of Hsp90 client proteins, LNCaP; assay type: cell-based, human
Excerpt: as §2

[14] = read-out: cytotoxicity IC50, 72 h
[15] = Homo sapiens, 72 h, read-out: cytotoxicity IC50

SMILES: CC(=O)O[C@@]12CO[C@@H]1C[C@H](O)[C@@]1(C)C(=O)[C@H](O)C3=C(C)[C@@H](OC(=O)[C@H](O)[C@@H](NC(=O)OC(C)(C)C)c4ccccc4)C[C@@](O)([C@@H](OC(=O)c4ccccc4)[C@H]21)C3(C)C [docetaxel, reference compound]
- IC50 [1]: 1 nM

SMILES: NC(=O)Nc1cc(-c2cccc(F)c2)sc1C(=O)N[C@H]1CCCNC1 [AZD-7762]
- combination effect with ganetespib in killing cells (PC3 cells [2]): in synergy with ganetespib

SMILES: C=CCNC1=C2C[C@@H](C)C[C@H](OC)[C@H](O)[C@@H](C)/C=C(\C)[C@H](OC(N)=O)[C@@H](OC)/C=C\C=C(/C)C(=O)NC(=CC1=O)C2=O [Compound 17-AAG, 17-AAG, reference compound]
- apoptotic cells, Annexin V staining (DU145 cells [3]): comparable proportion of apoptotic cells
- exposure required for significant reductions in p-EGFR expression [4]: 18 h
- IC50 (LNCaP cells; [14]): 265 nM
- IC50 (22Rv1 cells): 1270 nM
- IC50 (DU145 cells [5]; DU145, 72 h): 36 nM
- IC50 (VCaP cells; [14]): 2640 nM
- IC50 (PC3 cells [6]; PC3, 72 h): 246 nM

SMILES: CC(C)c1cc(-c2nnc(O)n2-c2ccc3c(ccn3C)c2)c(O)cc1O [Ganetespib, 3-(2,4-dihydroxy-5-isopropyl-phenyl)-4-(1-methyl-indol-5-yl)-5-hydroxy-[1,2,4] triazole]
- constitutive V7 activity, luciferase assay (constitutive V7 activity): less effective
- IC50 fold less than 17-AAG [7]: 3-7 fold
- apoptotic cells, Annexin V staining (DU145 cells [3]): dose-dependent increase in apoptotic cells
- dose sufficient to induce degradation of full-length AR, destabilization of p-AKT/AKT and apoptosis (cleaved PARP) [8]: ≤ 25 nM
- androgen-increased full-length AR expression (full length AR): completely abrogated
- R1881 induction of PSA and TMPRSS2 mRNA [9]: significantly inhibited
- cell cycle distribution (DU145 cells [10]): dose-dependent accumulation of cells in the G2/M phase
- exposure required for significant reductions in p-EGFR expression [4]: 18 h
- STAT3 signaling ([4]; DU145, 24 h, Western blot): completely abrogated
- IC50 (LNCaP cells; [15]): 8 nM
- IC50 (22Rv1 cells; Homo sapiens): 2 nM
- time by which IGF-1R levels were reduced (PC3 cells (IGF-1R)): ≤ 6 h
- expression of the variant (V7) receptor (V7 truncated AR isoform): neither inhibitor significantly altered expression
- cell cycle distribution (PC3 cells [11]): dose-dependent accumulation of cells in the G2/M phase
- IC50 (DU145 cells [5]; Homo sapiens, DU-145, 72 h): 12 nM
- IC50 [1]: 14 nM
- tolerability of the regimen (PC3 tumor xenografts; 150 mg/kg weekly, nude mice): well tolerated
- % T/C (PC3 tumor xenografts; once a week at 150 mg/kg for 4 weeks): 17%
- % T/C (PC3 tumor xenografts; twice a week at 50 mg/kg for 4 weeks): 3%
- highest non-severely toxic dose (HNSTD) [12]: 150 mg/kg
- IC50 (VCaP cells; [15]): 7 nM
- IC50 (PC3 cells [6]; Homo sapiens, PC-3, 72 h): 77 nM
- full-length AR activity, luciferase assay (full-length AR activity): strongly inhibited
- time of destabilization of p-AKT/AKT ([13]; 100 nM): 18 h
- time of loss of total and phosphorylated CDK1 ([13]; 100 nM): ≤ 24 h
- time to measurable reduction in AR expression ([13]; 100 nM): ≤ 3 h
- AR levels ([13]; 24 h, Western blot): potent and dose-dependent decrease
